Results from US12103983B2, “Compound and angiogenic agent comprising same” (HiPep Laboratories, priority 2018, dated 2024).
Bridge positions count the residues as written; N and C are the ends. Square brackets hold non-standard residues; d marks the D form. Peptide text beside a SMILES is read from it. AEEA = NCCOCCOCC(=O)O

system: endogenous cellular enzyme; assay: Stability test against endogenous cellular enzyme (HUVEC cell lysate); format: in vitro ADME, human; settings: 37° C., after 6 hours of the assay
Procedure: In order to test retention of the effect, and usefulness as a drug, each peptide was subjected to a stability test against endogenous cellular enzyme.
Human vascular endothelial cells (HUVECs (Human Umbilical Vein Endothelial Cells, Promocell GmbH.)) were used. Cryopreserved HUVECs were cultured for 2 days in Endothelial Cell Growth Medium (Promocell GmbH.). The cells were detached and collected by a conventional method using trypsin-EDTA, and washed with H2O, followed by addition of Lysis Buffer for Enzyme extraction (5 mL of TBS pH 7.5, 5 mL of Triton X100 (trade name), 40 mL of H2O with cOmplete mini, manufactured by Roche) thereto. The resulting mixture was left to stand on ice for 30 minutes to lyse the cells. The resulting cell lysate was centrifuged at 13,000 rpm at 4° C. for 3 min, and the supernatant was collected. The protein concentration was measured at A280 (Nano drop, Thermofischer scientific), and then adjusted to 2 mg/mL to prepare a protein solution for an assay.
In each of PCR tubes, 50 μL of each of four kinds of AGP solutions (2 mg/mL)+20 μL of the cell lysate (2 mg/mL)+30 μL of H2O were mixed together, and the resulting mixtures were incubated at 37° C. in an incubator for 0, 1, 3, or 6 hours. Thereafter, each mixture was heated in a hot water bath at 90° C. for 5 minutes to inactivate enzyme, and then subjected to LC-MS analysis. The remaining peptide was quantified based on the area value of the peak detected with UV 210 nm in LC.

remaining peptide / degradation (in words)	SMILES
same level of stability	CC(C)CC(NC(=O)CNC(=O)C(Cc1ccccc1)NC(=O)C(NC(=O)C(NC(=O)C(CO)NC(=O)COCCOCCN)C(C)C)C(C)C)C(=O)NC(CCCNC(=N)N)C(N)=O (stereo not drawn) [AGP-O2Oc, O2Oc-SVVFGLR-NH2] (H-[AEEA]SVVFGLR-NH2; configuration not given here)
remained almost without degradation	CC(C)CC1NC(=O)CNC(=O)C(Cc2ccccc2)NC(=O)C(C(C)C)NC(=O)C(C(C)C)NC(=O)C(CO)NC(=O)COCCOCCNC(=O)C(N)CSSCC(C(N)=O)NC(=O)CNC(=O)C(CCCNC(=N)N)NC1=O (stereo not drawn) [cAGP2, Cyclic(DCys-O2Oc-SVVFGLR-G-DCys)-NH2] (H-C[AEEA]SVVFGLRGC-NH2; disulfide 1-11; configuration not given here)
remained almost without degradation	CC(C)CC1NC(=O)CNC(=O)C(Cc2ccccc2)NC(=O)C(C(C)C)NC(=O)C(C(C)C)NC(=O)C(CO)NC(=O)COCCOCCNC(=O)C(N)CSSCC(C(N)=O)NC(=O)CNC(=O)C(CCCNC(=N)N)NC1=O (stereo not drawn) [cAGP3, Cyclic(Cys-O2Oc-SVVFGLR-G-Cys)-NH2] (H-C[AEEA]SVVFGLRGC-NH2; disulfide 1-11; configuration not given here)
